Experimental data reported in the supplement of paper PMC8967900.

Experiments:
Assay in all cases: selective drug sensitivity score (sDSS, relative to normal bone marrow) (sDSS (score)); higher = more potent and effective on the cell line relative to normal bone marrow cells
Details in all cases: 72 h
COG-LL-319h = test system: COG-LL-319h
COG-LL-402h = test system: COG-LL-402h
LC4-1 = test system: LC4-1
NALL-1 = test system: NALL-1
CCRF-CEM = test system: CCRF-CEM
MHH-CALL-2 = test system: MHH-CALL-2
KARPAS-45 = test system: KARPAS-45
TMD5 = test system: TMD5
SEM cells = test system: SEM cells
MOLT-16 = test system: MOLT-16
COG-LL-394h = test system: COG-LL-394h
KOPN-8 = test system: KOPN-8
KASUMI-9 = test system: KASUMI-9
P12-ICHIKAWA = test system: P12-ICHIKAWA
PF-382 = test system: PF-382
REH = test system: REH
NALM-16 = test system: NALM-16
COG-LL-355h = test system: COG-LL-355h
RPMI-8402 = test system: RPMI-8402
ALL-SIL = test system: ALL-SIL
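Further: ALL cell lines in 384-well plates, five doses spanning 10,000-fold, each plate scaled between vehicle and 100 µmol/L benzalkonium chloride controls, sDSS an adapted area-under-curve metric.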

Compound	selective drug sensitivity score (COG-LL-319h)	selective drug sensitivity score (COG-LL-402h)	selective drug sensitivity score (LC4-1)	selective drug sensitivity score (NALL-1)	selective drug sensitivity score (CCRF-CEM)	selective drug sensitivity score (MHH-CALL-2)	selective drug sensitivity score (KARPAS-45)	selective drug sensitivity score (TMD5)	selective drug sensitivity score (SEM cells)	selective drug sensitivity score (MOLT-16)	selective drug sensitivity score (COG-LL-394h)	selective drug sensitivity score (KOPN-8)	selective drug sensitivity score (KASUMI-9)	selective drug sensitivity score (P12-ICHIKAWA)	selective drug sensitivity score (PF-382)	selective drug sensitivity score (REH)	selective drug sensitivity score (NALM-16)	selective drug sensitivity score (COG-LL-355h)	selective drug sensitivity score (RPMI-8402)	selective drug sensitivity score (ALL-SIL)
CCCCCOC(=O)Nc1nc(=O)n([C@@H]2O[C@H](C)[C@@H](O)[C@H]2O)cc1F [Capecitabine] (top concentration 10000 nM)	-0.06	-0.06	-0.06	-0.06	-0.06	1.04	-0.06	-0.06	0.04	-0.06	-0.06	-0.06	-0.06	-0.06	-0.06	-0.06	-0.06	-0.06	-0.06	-0.06
CC(C)N(C[C@H]1O[C@@H](n2cnc3c(N)ncnc32)[C@H](O)[C@@H]1O)[C@H]1C[C@@H](CCc2nc3cc(C(C)(C)C)ccc3[nH]2)C1 [Pinometostat] (top concentration 1000 nM)	0	0	0	0	0	0	0	0	0	0	0	0	0	0	0	0	0	0	0	0.2
CC[C@@H]1C(=O)N(C)c2cnc(Nc3ccc(C(=O)NC4CCN(C)CC4)cc3OC)nc2N1C1CCCC1 [BI-2536] (top concentration 1000 nM)	23.6	17.2	20.1	-8.46	20.1	16.2	21.3	10.4	20.7	9.04	9.44	17	20.3	20.9	18.7	16.4	14.5	4.84	22.4	21.5
CN1CCN(c2cc(C(=O)Nc3ccc4c(c3)-c3c(c(C(N)=O)nn3-c3ccc(F)cc3)CC4)c(Cl)cn2)CC1 [PHA-408] (top concentration 10000 nM)	5.08	-3.92	3.98	-0.82	0.48	1.58	0.98	-1.22	-2.02	1.28	-1.22	3.88	2.48	-0.02	1.48	0.08	-4.62	3.38	1.88	2.58
C[C@@H]1CN(Cc2ccc(F)cc2)[C@@H](C)CN1C(=O)c1cc2c(C(=O)C(=O)N(C)C)cn(C)c2cc1Cl [Talmapimod] (top concentration 10000 nM)	0	0	0	0	0	0	0	0	0.4	0	0.7	0	0	0	0	2.8	0	0	0.8	2.1
CC[C@H](NC(=O)[C@H](C)NC)C(=O)N1C[C@@H](O)C[C@H]1Cc1c(-c2[nH]c3cc(F)ccc3c2C[C@@H]2C[C@H](O)CN2C(=O)[C@H](CC)NC(=O)[C@H](C)NC)[nH]c2cc(F)ccc12 [Birinapant] (top concentration 1000 nM)	14.5	-5.1	-5.1	6.9	1.4	8.7	-5.1	-0.1	-5.1	-1.7	16.2	-5.1	-5.1	-5.1	-4.6	1.1	0.5	13.3	-3.2	8.7
N#Cc1ccc2[nH]c(O)c(-c3ccc(CN4CCOCC4)cn3)c2c1 [AZD-1080] (top concentration 10000 nM)	6.28	2.08	3.28	-0.02	-0.02	-0.02	-0.02	-0.02	4.58	0.38	-0.02	4.28	4.08	-0.02	-0.02	8.28	0.48	3.98	-0.02	-0.02
CO[C@@H](C(=O)N1Cc2[nH]nc(NC(=O)c3ccc(N4CCN(C)CC4)cc3)c2C1)c1ccccc1 [Danusertib] (top concentration 10000 nM)	19	11.5	19.9	13.5	18.5	11.7	8.94	14.5	19.2	22.4	2.64	19	15.5	21.7	6.24	16.5	-0.96	3.04	6.54	22.8
O=c1sn(-c2cccc3ccccc23)c(=O)n1Cc1ccccc1 [Tideglusib] (top concentration 3000 nM)	-0.3	-0.3	-0.3	-0.3	-0.3	0.5	-0.3	-0.3	-0.3	-0.3	-0.3	-0.3	-0.3	-0.3	-0.3	0.4	-0.3	-0.3	-0.3	3.7
O=c1[nH]c(=O)n([C@H]2C[C@H](O)[C@@H](CO)O2)cc1F [Floxuridine] (top concentration 10000 nM)	26.8	28.2	36.2	21	31.1	24.2	-1.38	-1.98	31.5	32.8	3.62	37.3	29	30.4	9.82	25.8	10.2	6.52	26	18.3
C[C@@H](C(=O)O)c1ccc(-c2ccccc2)c(F)c1 [Tarenflurbil] (top concentration 10000 nM)	-0.16	-0.16	0.64	4.34	-0.16	-0.16	-0.16	3.64	-0.16	5.04	-0.16	-0.16	6.84	-0.16	-0.16	-0.06	0.04	-0.16	-0.16	-0.16
O=C(O)c1ccc(O)c2ncccc12 [IOX-1] (top concentration 100000 nM)	2.94	3.64	3.24	2.24	3.74	3.64	4.04	0.64	1.84	3.74	-1.56	2.84	2.94	4.34	4.44	2.54	4.64	3.24	2.64	6.24
c1cc(CN2CCCNCCNCCCNCC2)ccc1CN1CCCNCCNCCCNCC1 [Plerixafor] (top concentration 10000 nM)	0	0	0	0	0	0	0	0	0	0	0	0	0	0	0	0.1	0	0	0	0
O=C(c1ccc(OCCN2CCCCC2)cc1)c1c(-c2ccc(O)cc2)sc2cc(O)ccc12 [Raloxifene] (top concentration 10000 nM)	-2.28	-1.68	-0.38	-2.28	1.42	0.22	3.32	-1.88	1.62	1.02	0.42	0.52	-0.68	-0.48	-0.58	4.62	-2.28	3.92	1.92	1.72
CC(C)(C)NC(=O)[C@H]1CC[C@H]2[C@@H]3CC[C@H]4NC(=O)C=C[C@]4(C)[C@H]3CC[C@]12C [Finasteride] (top concentration 10000 nM)	-0.42	-0.52	2.08	3.48	-0.52	0.98	-0.52	0.58	1.48	-0.52	-0.52	8.18	-0.12	-0.52	-0.52	-0.52	-0.52	-0.52	-0.52	1.78
CC(C)(O)CNc1nc(Nc2ccnc(C(F)(F)F)c2)nc(-c2cccc(C(F)(F)F)n2)n1 [Enasidenib] (top concentration 10000 nM)	2	-0.7	3.9	-0.8	-0.1	-0.4	4.1	-0.8	2.3	0.1	1.7	1.2	-0.8	0.2	-0.1	-0.8	-0.8	-0.6	0.4	1.8
CN(C)CC#Cc1ccc(OCCCc2sc(N3CCc4cccc(C(=O)Nc5nc6ccccc6s5)c4C3)nc2C(=O)O)c(F)c1 (top concentration 10000 nM)	21.7	26.4	0.36	3.46	32.8	1.66	38.5	-3.64	-0.24	0.56	17	3.46	-1.24	39.3	24.4	-1.84	-1.24	27.2	27.9	37.6
CC(=O)[C@]1(O)Cc2c(O)c3c(c(O)c2[C@@H](O[C@H]2C[C@H](N)[C@H](O)[C@H](C)O2)C1)C(=O)c1ccccc1C3=O [Idarubicin] (top concentration 1000 nM)	16.7	14.9	4.04	-3.66	8.84	8.04	-2.36	1.94	6.74	15.9	7.94	8.74	4.94	8.24	1.24	11.8	-2.56	3.14	10.5	4.64
